Laboratory results from patent US20050065208A1, “Benzofuranes and their use in the treatment of atrial fibrillation” (priority 2001, published 2005).
Read-outs that look alike come from different tables or passages of the source.

Columns and labels:
[1] = biological target: T1, IK(Ado), adenosine activated K-current (Homo sapiens, UniProt P48544+P48549); parameters: key to Blocking activity on IK(Ado): Yes: The compound has been demonstrated to inhibit the particular current (reference within parenthesis).; No: The compound has been demonstrated to not inhibit the particular current (reference within parenthesis).; U: No data regarding interaction of the compound with the particular current has been found in the literature; settings: cited from earlier work; for Blocking activity on IK(Ado): Table 2, literature; for IC50: literature value, read-out: Inhibition of IK (Ado) Induced by Adenosine (IC50)
T1 construct: electrophysiology technique applied to cardiomyocyte cultures; endogenous in cells
T1 sequence (P48549 1-501): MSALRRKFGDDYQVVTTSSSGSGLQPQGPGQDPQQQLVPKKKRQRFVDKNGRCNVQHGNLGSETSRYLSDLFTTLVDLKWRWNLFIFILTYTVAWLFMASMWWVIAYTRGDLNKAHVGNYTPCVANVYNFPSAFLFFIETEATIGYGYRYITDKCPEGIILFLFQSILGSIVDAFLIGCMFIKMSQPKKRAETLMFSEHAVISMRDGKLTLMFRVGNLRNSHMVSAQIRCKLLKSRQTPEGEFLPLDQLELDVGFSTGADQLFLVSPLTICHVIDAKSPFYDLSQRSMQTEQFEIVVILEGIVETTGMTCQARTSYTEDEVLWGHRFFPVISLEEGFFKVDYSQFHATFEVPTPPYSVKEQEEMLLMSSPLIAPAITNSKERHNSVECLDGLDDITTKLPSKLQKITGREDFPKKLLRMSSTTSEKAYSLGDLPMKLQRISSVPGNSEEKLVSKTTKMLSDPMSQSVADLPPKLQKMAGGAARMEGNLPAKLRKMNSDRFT
T1 sequence (P48544 1-419): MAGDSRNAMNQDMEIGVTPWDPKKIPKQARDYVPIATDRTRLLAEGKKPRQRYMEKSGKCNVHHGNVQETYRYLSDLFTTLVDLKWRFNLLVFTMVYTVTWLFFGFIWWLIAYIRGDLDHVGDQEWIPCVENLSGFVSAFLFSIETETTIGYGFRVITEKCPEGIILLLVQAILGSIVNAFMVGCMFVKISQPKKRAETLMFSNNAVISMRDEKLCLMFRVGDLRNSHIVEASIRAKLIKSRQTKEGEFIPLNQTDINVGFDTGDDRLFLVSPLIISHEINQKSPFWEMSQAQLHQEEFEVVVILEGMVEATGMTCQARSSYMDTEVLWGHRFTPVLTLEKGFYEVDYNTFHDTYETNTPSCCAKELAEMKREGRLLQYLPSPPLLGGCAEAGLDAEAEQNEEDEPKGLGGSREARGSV

[2] = biological target: T2, IK(ACh), AcetylCholine activated K-current (Homo sapiens, UniProt P48544+P48549); parameters: key to Blocking activity on IK(ACh): Yes: The compound has been demonstrated to inhibit the particular current (reference within parenthesis).; No: The compound has been demonstrated to not inhibit the particular current (reference within parenthesis).; U: No data regarding interaction of the compound with the particular current has been found in the literature; settings: cited from earlier work; for Blocking activity on IK(ACh): Table 2, literature; for IC50: current induced by ACh or carbachol, literature value, read-out: Inhibition of IK (ACh) (Induced by ACh or Carbachol) (IC50)
T2 construct: electrophysiology technique applied to cardiomyocyte cultures; endogenous in cells
T2 sequence (P48549 1-501): T1 sequence (P48549 1-501)
T2 sequence (P48544 1-419): T1 sequence (P48544 1-419)

[3] = tested on: IK1, inward rectifier K-current; parameters: key: Yes: The compound has been demonstrated to inhibit the particular current (reference within parenthesis).; No: The compound has been demonstrated to not inhibit the particular current (reference within parenthesis).; U: No data regarding interaction of the compound with the particular current has been found in the literature; settings: Table 2, literature; cited from earlier work
[4] = biological target: IKs, slow component of the delayed rectifier K-current (Homo sapiens, UniProt P51787); parameters: key: Yes: The compound has been demonstrated to inhibit the particular current (reference within parenthesis).; No: The compound has been demonstrated to not inhibit the particular current (reference within parenthesis).; U: No data regarding interaction of the compound with the particular current has been found in the literature; settings: Table 2, literature; cited from earlier work
[5] = tested on: Ito, transient outward K-current; parameters: key: Yes: The compound has been demonstrated to inhibit the particular current (reference within parenthesis).; No: The compound has been demonstrated to not inhibit the particular current (reference within parenthesis).; U: No data regarding interaction of the compound with the particular current has been found in the literature; settings: Table 2, literature; cited from earlier work
[6] = biological target: INa, depolarizing Na-current (Homo sapiens, UniProt Q14524); parameters: key: Yes: The compound has been demonstrated to inhibit the particular current (reference within parenthesis).; No: The compound has been demonstrated to not inhibit the particular current (reference within parenthesis).; U: No data regarding interaction of the compound with the particular current has been found in the literature; settings: Table 2, literature; cited from earlier work
[7] = biological target: T3, IK(ATP), ATP-sensitive K-current (Homo sapiens, UniProt Q14654); parameters: key: Yes: The compound has been demonstrated to inhibit the particular current (reference within parenthesis).; No: The compound has been demonstrated to not inhibit the particular current (reference within parenthesis).; U: No data regarding interaction of the compound with the particular current has been found in the literature; settings: Table 2, literature; cited from earlier work
T3 construct: electrophysiology technique applied to cardiomyocyte cultures; endogenous in cells; current induced with dinitrophenole

[8] = biological target: T1, IK(Ado), adenosine activated K-current; assay: Voltage clamp on cardiomyocyte cultures: inhibition of adenosine-induced K-current; assay type: cell-based
Description: (§1) In the present invention acute and chronic effects of various compounds have been investigated by using electrophysiology technique applied to cardiomyocyte cultures.
(§2) The inhibitory effects occur within seconds after induction of the current with ACh, Ado or dinitrophenole (DNP reduces intracellular ATP). The acute inhibitory effects caused by the compounds of the present invention on these K-currents in cardiac muscle tissue had not previously been discovered. The reasons for this include the fact that these ligand activated K-currents (IK(Ado), IK(ACh) and IK(ATP)) are preferentially active in the atrial cardiomyocytes (Workman A J et al. Cardiovasc Res 1999 September;43(4):974-84; Koumi S-I, and Wasserstorm A. American Journal of Physiology 266[35], H1812-H1821. 1994), while previous studies have been carried out with tissue from cardiac ventricles. Furthermore, IK(Ado) and IK(ACh) must first be induced via the M2 or A1 receptor (with ACh and Ado respectively) before any inhibition can be observed. Without any agonist at the extracellular site of the membrane these ligand-gated channels probably have only minor roles in shaping repolarization but, when activated by extracellular acetylcholine or adenosine, they can substantially shorten action potential duration in the atrium (Tristani-Firouzi M et al. Am J Med 2001 January; 110(1):50-9).
(§3) The following Table 1 illustrates the potency (IC50-values) of compounds of formulae I and II compared with other anti-arrhythmic drugs to inhibit the transmembrane currents IK(Ado) and IK(ACh) after stimulation of the currents with Adenosine or Acetylcholine (or Carbachol).

[9] = biological target: T2, IK(ACh), AcetylCholine activated K-current; assay: Voltage clamp on cardiomyocyte cultures: inhibition of K-current induced by ACh or carbachol; assay type: cell-based
Description: as §1, §2, §3

T3 sequence (Q14654 whole entry): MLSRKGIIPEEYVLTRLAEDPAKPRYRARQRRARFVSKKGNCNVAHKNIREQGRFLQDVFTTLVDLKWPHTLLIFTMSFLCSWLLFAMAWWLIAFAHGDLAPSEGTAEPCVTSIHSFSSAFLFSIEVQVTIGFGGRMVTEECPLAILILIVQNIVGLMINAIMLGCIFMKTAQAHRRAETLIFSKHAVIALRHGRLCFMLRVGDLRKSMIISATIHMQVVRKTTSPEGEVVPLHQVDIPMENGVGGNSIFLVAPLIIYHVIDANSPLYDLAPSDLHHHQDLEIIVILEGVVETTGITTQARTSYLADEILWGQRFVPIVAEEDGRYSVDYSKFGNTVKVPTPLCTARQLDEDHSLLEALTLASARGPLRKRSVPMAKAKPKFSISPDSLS
T3 sequence (O60706 whole entry partner): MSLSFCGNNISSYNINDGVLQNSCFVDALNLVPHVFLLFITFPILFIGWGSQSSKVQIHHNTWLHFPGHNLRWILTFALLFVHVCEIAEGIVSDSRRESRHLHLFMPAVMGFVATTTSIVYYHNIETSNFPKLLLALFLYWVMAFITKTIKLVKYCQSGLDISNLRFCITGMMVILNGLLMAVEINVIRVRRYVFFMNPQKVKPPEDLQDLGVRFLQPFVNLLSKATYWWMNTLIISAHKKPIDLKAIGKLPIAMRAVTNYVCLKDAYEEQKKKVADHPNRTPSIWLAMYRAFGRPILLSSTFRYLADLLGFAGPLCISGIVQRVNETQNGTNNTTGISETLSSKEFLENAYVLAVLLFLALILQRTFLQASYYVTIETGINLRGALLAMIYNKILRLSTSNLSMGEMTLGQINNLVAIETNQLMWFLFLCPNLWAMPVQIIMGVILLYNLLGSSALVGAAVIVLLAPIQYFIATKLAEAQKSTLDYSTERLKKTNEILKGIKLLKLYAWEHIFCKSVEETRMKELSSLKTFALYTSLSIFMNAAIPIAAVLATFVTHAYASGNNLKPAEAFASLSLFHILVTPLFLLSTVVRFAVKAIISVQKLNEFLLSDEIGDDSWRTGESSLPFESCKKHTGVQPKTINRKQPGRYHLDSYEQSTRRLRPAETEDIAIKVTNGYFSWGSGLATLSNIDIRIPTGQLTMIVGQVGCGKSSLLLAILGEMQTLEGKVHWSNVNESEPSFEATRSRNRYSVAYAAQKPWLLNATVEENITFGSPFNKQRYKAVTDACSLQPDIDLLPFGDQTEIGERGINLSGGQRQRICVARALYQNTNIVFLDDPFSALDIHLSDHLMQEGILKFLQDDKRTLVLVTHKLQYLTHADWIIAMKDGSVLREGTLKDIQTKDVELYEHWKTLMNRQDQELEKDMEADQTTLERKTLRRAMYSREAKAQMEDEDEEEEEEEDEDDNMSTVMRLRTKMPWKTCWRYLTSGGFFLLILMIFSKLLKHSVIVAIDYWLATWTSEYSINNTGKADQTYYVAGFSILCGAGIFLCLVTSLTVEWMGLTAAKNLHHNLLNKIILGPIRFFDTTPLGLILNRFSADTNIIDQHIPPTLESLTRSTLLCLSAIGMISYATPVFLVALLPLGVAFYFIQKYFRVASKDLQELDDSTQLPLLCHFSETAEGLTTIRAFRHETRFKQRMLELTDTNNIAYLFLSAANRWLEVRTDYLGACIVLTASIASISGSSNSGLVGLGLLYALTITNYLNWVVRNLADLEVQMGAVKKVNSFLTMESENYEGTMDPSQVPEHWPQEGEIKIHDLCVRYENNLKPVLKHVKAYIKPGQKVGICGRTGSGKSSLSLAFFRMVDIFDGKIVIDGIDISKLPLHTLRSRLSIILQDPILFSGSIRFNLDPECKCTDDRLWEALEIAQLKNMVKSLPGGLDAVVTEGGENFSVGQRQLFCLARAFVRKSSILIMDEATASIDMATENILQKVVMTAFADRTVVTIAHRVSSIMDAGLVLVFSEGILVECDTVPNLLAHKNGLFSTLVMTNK
INa, depolarizing Na-current, sequence (Q14524 whole entry): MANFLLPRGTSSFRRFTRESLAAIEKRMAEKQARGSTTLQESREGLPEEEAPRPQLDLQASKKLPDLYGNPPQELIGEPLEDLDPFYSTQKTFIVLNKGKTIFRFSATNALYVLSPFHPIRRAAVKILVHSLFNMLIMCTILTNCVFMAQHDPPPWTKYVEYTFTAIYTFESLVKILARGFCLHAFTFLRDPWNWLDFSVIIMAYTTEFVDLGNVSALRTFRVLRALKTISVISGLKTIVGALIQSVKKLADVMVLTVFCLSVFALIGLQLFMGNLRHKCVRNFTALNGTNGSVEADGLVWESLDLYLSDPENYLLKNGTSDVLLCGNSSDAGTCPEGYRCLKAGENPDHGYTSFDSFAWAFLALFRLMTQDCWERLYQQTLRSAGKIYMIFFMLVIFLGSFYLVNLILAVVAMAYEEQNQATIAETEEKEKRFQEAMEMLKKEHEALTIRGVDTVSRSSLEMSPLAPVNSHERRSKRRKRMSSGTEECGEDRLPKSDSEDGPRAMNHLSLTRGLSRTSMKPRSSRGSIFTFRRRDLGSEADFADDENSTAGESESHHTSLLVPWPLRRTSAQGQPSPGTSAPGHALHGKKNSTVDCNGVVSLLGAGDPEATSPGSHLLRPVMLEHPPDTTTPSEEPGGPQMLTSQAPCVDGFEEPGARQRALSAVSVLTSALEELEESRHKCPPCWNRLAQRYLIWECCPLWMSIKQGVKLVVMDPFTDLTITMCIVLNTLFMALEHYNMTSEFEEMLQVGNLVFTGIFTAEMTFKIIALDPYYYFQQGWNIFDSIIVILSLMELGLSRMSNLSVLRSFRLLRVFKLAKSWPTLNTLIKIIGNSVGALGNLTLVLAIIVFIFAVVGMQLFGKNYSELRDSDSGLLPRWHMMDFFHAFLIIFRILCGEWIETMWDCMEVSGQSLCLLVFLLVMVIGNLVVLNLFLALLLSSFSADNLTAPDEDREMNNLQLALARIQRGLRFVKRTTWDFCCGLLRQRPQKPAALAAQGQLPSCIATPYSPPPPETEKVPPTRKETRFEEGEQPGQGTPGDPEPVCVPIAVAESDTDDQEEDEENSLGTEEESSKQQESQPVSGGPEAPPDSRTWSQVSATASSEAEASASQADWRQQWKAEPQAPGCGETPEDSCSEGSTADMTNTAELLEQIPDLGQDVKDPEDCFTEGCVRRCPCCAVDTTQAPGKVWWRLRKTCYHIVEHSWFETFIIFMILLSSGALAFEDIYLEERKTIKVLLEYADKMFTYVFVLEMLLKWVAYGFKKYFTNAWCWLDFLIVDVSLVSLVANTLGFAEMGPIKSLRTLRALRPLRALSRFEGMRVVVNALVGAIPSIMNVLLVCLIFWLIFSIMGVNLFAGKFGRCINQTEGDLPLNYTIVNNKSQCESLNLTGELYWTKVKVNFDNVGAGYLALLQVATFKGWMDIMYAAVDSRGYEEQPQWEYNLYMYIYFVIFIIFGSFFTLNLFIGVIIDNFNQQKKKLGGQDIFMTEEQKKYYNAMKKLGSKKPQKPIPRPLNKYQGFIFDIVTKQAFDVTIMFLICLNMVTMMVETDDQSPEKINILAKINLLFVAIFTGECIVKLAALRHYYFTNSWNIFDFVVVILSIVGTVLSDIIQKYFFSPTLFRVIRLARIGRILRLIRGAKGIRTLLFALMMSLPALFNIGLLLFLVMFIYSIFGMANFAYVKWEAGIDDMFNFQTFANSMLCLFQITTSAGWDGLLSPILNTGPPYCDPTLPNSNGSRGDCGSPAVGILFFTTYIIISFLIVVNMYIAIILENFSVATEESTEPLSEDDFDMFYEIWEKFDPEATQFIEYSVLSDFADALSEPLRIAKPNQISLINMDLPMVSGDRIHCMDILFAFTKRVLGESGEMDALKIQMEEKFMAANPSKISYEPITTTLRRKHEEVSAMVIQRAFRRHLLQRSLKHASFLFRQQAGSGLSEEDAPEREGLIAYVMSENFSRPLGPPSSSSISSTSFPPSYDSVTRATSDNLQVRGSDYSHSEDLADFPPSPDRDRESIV

Row | SMILES | Blocking activity on IK(ACh) [2] | IC50 [2] [nM] | Blocking activity on IK1 [3] | Blocking activity on IKs [4] | Blocking activity on Ito [5] | Blocking activity on INa [6] | Blocking activity on IK(ATP) [7] | other results
1 | CC(C)NCC(O)c1ccc(NS(C)(=O)=O)cc1 (racemic) [d,l-sotalol] | Yes (Mori) | 36000 | Yes | No | Yes | No |  | Blocking activity on IK(Ado) [1]: No; Inhibition of IK (Ado) Induced by Adenosine, in words ([1]; current induced by adenosine, literature): No effect
2 | CCN(CC)CCCN(c1ccccc1)C1Cc2ccccc2C1 [Aprinidine] | Yes | 400 | No | No | Yes | Yes |  | 
3 | CC(C)N(CCC(C(N)=O)(c1ccccc1)c1ccccn1)C(C)C (centres unmarked) [Disopyramide] | Yes | 1700 | No | Yes | Yes | Yes | Yes | 
4 | CCCCc1oc2ccc(NS(C)(=O)=O)cc2c1C(=O)c1ccc(OCCCN(CCCC)CCCC)cc1 [Dronedarone] | Yes | 10 |  | Yes |  | Yes |  | 
5 | Cc1oc2ccccc2c1C(=O)c1cc(I)c(O)c(I)c1 [Example E5, 2-methyl-3-(3,5-diiodo-4-hydroxy-benzoyl)benzofuran] |  |  |  |  |  |  |  | IC50 ([8]; current induced by adenosine): 1000 nM; IC50 ([9]; current induced by ACh or carbachol): 1000 nM
6 | Cc1cccc(CCN2CCC(C(=O)c3ccc(NS(C)(=O)=O)cc3)CC2)n1 [Example E-4031] |  | 8000 |  |  |  |  |  | Inhibition of IK (Ado) Induced by Adenosine, effect at 100 μM ([1]; literature): Some effect at 100 μM
7 | N[C@@H](Cc1cc(I)c(Oc2ccc(O)c(I)c2)c(I)c1)C(=O)O [Example T3, triiodthyronine] |  |  |  |  |  |  |  | Acute effects on IK(Ado) [8]: does not have acute effects; Acute effects on IK(ACh) [9]: does not have acute effects
8 | O=C(NCC1CCCCN1)c1cc(OCC(F)(F)F)ccc1OCC(F)(F)F (centres unmarked) [Flecainide] | Yes | 3600 | No | No | Yes | Yes | Yes | 
9 | Cn1c(NCCN(CCO)CCCc2ccc([N+](=O)[O-])cc2)cc(=O)n(C)c1=O [MS-551] |  | 11000 |  |  |  |  |  | Inhibition of IK (Ado) Induced by Adenosine, effect at 100 μM ([1]; literature): Some effect at 100 μM
10 | CC(C)NCC(O)COc1cccc2ccccc12 (centres unmarked) [Propranolol] |  | 56000 |  |  |  |  |  | IC50 ([1]; current induced by adenosine): 8000 nM
11 | C=C[C@H]1C[N@@]2CC[C@H]1C[C@@H]2[C@@H](O)c1ccnc2ccc(OC)cc12 [Quinidine] | Yes | 1600 | No | No | Yes | Yes | Yes | 
12 | Cc1cccc(C)c1NC(=O)CC12CCCN1CCC2 [SUN 1165] |  | 29000 |  |  |  |  |  | 
13 | COc1ccc(C2CCN(CC[C@H]3CCOc4ccccc43)CC2)cc1OC [Terikalant] | Yes | 2000 | Yes | Yes | Yes | No | No | Blocking activity on IK(Ado) [1]: Yes; IC50 ([1]; current induced by adenosine): 2000 nM
